Assay results taken from patent US5624928A, “Method of synthesizing an endonuclease inhibitor and analogs thereof” (priority 1994, dated 1997).

Target: transcription apparatus of the influenza virus (Influenza A virus, UniProt P03433)
Test: in vitro influenza transcription assay
Assay type: biochemical

Compared with O=C1C(Cc2ccccc2)=N/C(=C\c2ccc(F)cc2)C(=O)N1O [Example 15A, 1-(N-hydroxy)-3-(benzyl)-5-(Z-p-fluoro-benz-1-enyl)-2,6-diketopiperazine-3,4-ene], O=C1C(Cc2ccc(F)cc2)=N/C(=C\c2ccccc2)C(=O)N1O [Example 15B] is 1.9-fold higher in IC50: 3.5 µM for the first, 6.5 µM for the second. The first is the more potent here.

CC(C)/C=C1\N=C(CC(C)C)C(=O)N(O)C1=O [Compound I, 1-(N-hydroxy)-3-(2-methyl-propyl)-5-(2-methyl-Z-prop-1-enyl)-2,6-diketopiperazine-3,4-ene] and CC(C)CC1=N/C(=C\c2ccccc2)C(=O)N(O)C1=O [Example 8, 1-(N-hydroxy)-3-(2-methyl-propyl)-5-(Z-benz-1-enyl)-2.6-diketopiperazine-3,4-ene] are within 1.5-fold of each other in IC50: 5 µM for the first, 4.8 µM for the second.

CC(C)CC1=N/C(=C\c2ccc(F)cc2)C(=O)N(O)C1=O [Example 9, 1-(N-hydroxy)-3-(2-methyl-propyl)-5-(Z-p-fluorobenz-1-enyl)-2.6-diketopiperazine-3.4-ene] and COc1ccc(/C=C2\N=C(CC(C)C)C(=O)N(O)C2=O)cc1 [Example 12, 1-(N-hydroxy)-3-(2-methyl-propyl)-5-(Z-p-methoxybenz-1-enyl)-2,6-diketopiperazine-3,4-ene] are within 1.5-fold of each other in IC50: 0.9 µM for the first, 0.8 µM for the second.

Going from CC(C)CC1=N/C(=C\c2ccccc2F)C(=O)N(O)C1=O [Example 10, 1-(N-hydroxy)-3-(2-methyl-propyl)-5-(Z-o-fluorobenz-1-enyl)-2,6-diketopiperazine-3,4-ene] to CC(C)CC1=N/C(=C\c2cccc(F)c2)C(=O)N(O)C1=O [Example 11, 1-(N-hydroxy)-3-(2-methyl-propyl)-5-(Z-m-fluorobenz-1-enyl)-2,6-diketopiperazine-3,4-ene], the IC50 falls from 7.3 µM to 1.5 µM (4.9-fold). The second is the more potent here.

Going from COc1ccc(/C=C2\N=C(Cc3ccccc3)C(=O)N(O)C2=O)cc1 [Example 14, 1-(N-hydroxy)-3-(benzyl)-5-(Z-p-methoxybenz-1-enyl)-2,6-diketopiperazine-3,4-ene] to CC(C)CC1NC(Cc2ccc(F)cc2)C(=O)N(O)C1=O (centres unmarked) [Example 16], the IC50 rises from 2.8 µM to 85 µM (30-fold).

CC(C)/C=C1\N=C(CC(C)C)C(=O)N(O)C1=O [Compound I, 1-(N-hydroxy)-3-(2-methyl-propyl)-5-(2-methyl-Z-prop-1-enyl)-2,6-diketopiperazine-3,4-ene] was tested, and the “IC50 in flu transcription assay (compared with the natural product)” value was “same IC50”.
